The values that follow come from patent publication US10364222B2, “Cyclic amine derivative and medical use thereof” (Toray Industries, Inc., priority 2016, dated 2019).

Assay [1] relates to mouse experimental autoimmune encephalomyelitis model. Description: Mouse experimental autoimmune encephalomyelitis model. The class given is in vivo. Particulars: C57BL/6J mice, vs vehicle. As for the experimental part:
Using increase in the neurological symptom score as an index of exacerbation of symptoms, the effect of the cyclic amine derivative (I) or a pharmacologically acceptable salt thereof in a mouse experimental autoimmune encephalomyelitis model was evaluated. The mouse experimental autoimmune encephalomyelitis model was prepared by a partially modified method by Hindinger et al. (Journal of Neuroscience Research, 2006, Vol. 84, p. 1225-1234).
A total of 0.1 mL (0.05 mL on each side) of an MOG35-55 administration solution prepared by mixing a PBS solution containing partial synthetic peptides of myelin oligodendrocyte glycoproteins (MOG35-55; CSBio, Inc.) prepared to a concentration of 4 mg/mL with Freund's complete adjuvant at equal amount was intradermally inoculated to both flank sides of C57BL/6J mice (male, 8 weeks old) (Charles River Laboratories Japan, Inc.). Furthermore, 200 μL of pertussis toxin (Sigma-Aldrich Japan) prepared to a concentration of 1 μg/mL was intraperitoneally administered to the mice on the day of inoculation and 2 days after inoculation of the MOG35-55 administration solution.
After inoculation of the MOG35-55 administration solution, the test compound was administered to the mice. As the test compound, the compound of Example 20, the compound of Example 29, and the compound of Example 57 were used. The compound of Example 20 was suspended in a 0.5 w/v % methylcellulose solution and orally administered once daily at a dose of 3 mg/kg every day from 2 days after inoculation of the MOG35-55 administration solution. […]
After inoculation of the MOG35-55 administration solution, the neurological symptom scores in the groups in which test compound was administered and the corresponding vehicle administration groups were scored (0: normal, 1: limp tail or hind limb weakness, 2: limp tail and hind limb weakness, 3: partial hind limb paralysis, 4: complete hind limb paralysis, 5: moribund state). […]

Assay [2] has as its system oxazolone-induced mouse atopic dermatitis model. Description: Oxazolone-induced mouse atopic dermatitis model. In kind it is in vivo. Particulars: BALB/c mice; 10 mg/kg orally once daily for 15 days from the sensitization day; vs vehicle, Student's t-test P<0.05. As for the experimental part: Using increase in the ear thickness as an index of exacerbation of symptoms, the effect of the cyclic amine derivative (I) or a pharmacologically acceptable salt thereof in an oxazolone-induced mouse atopic dermatitis model was evaluated. The oxazolone-induced mouse atopic dermatitis model was prepared by a partially modified method by Nakajima et al. (Journal of Investigative Dermatology, 2014, Vol. 134, p. 2122-2130).
BALB/c mice (female, 7 weeks old) (Charles River Laboratories Japan, Inc.) were used at 8 or 9 weeks old after preliminary breeding. To the back of the mice, 25 μL of a 3 w/v % oxazolone solution dissolved in ethanol was applied to sensitize the mice. Every other day from 5 days to 13 days after the sensitization, 10 μL each of a 0.6 w/v % oxazolone solution dissolved in ethanol was applied to both sides of the right auricle of the sensitized mice to induce inflammation.
The test compound at a dose of 10 mg/kg was administered to the mice once daily for 15 days from the sensitization day to 14 days after sensitization. As the test compound, the compound of Example 20, the compound of Example 29, and the compound of Example 57 were used. The compound of Example 20, the compound of Example 29, and the compound of Example 57 were suspended in a 0.5 w/v % methylcellulose solution and orally administered. The group in which the compound of Example 20 was administered to mice was defined as the Example-20 compound administration group, the group in which the compound of Example 29 was administered was defined as the Example-29 compound administration group, and the group in which the compound of Example 57 was administered was defined as the Example-57 compound administration group. In the vehicle administration group, a vehicle of each test compound (0.5 w/v % methylcellulose solution) was similarly administered.
The right ear thickness before application of the oxazolone solution (before sensitization) on the sensitization day and the right ear thickness on the next day of final induction were measured with a digital micrometer (Mitutoyo Corporation). […]

As to `CN(CC(=O)N1CCCC[C@@H]1C(=O)Nc1ccc(-c2ccccc2OC(F)(F)F)c(Cl)c1)S(C)(=O)=O` [Example 29, (R)-N-(2-chloro-2′-(trifluoromethoxy)-[1,1′-biphenyl]-4-yl)-1-(2-(N-methylmethylsulfonamide)acetyl)piperidine-2-carboxamide], the “increase in the neurological symptom score” value in assay [1] (1 mg/kg orally once daily from 13 days after MOG35-55 inoculation, score on the 23rd day, Wilcoxon test P<0.05 (FIG. 2)) is given as “statistically significantly suppressed”. The “change in the ear thickness (right ear, next day of final induction − before sensitization)” value (“change in the ear thickness” below) in assay [2] is on record as “statistically significantly suppressed”.
In the case of `CC(=O)N1CCCC[C@@H]1C(=O)Nc1ccc(-c2ccccc2OC(F)(F)F)c(Cl)c1` [Example 20, (R)-1-acetyl-N-(2-chloro-2′-(trifluoromethoxy)-[1,1′-biphenyl]-4-yl)piperidine-2-carboxamide], the “increase in the neurological symptom score” value in assay [1] (3 mg/kg orally once daily from 2 days after MOG35-55 inoculation, score on the 13th day, Wilcoxon test P<0.05 (FIG. 1)) is reported as “statistically significantly suppressed”. In assay [2], the “change in the ear thickness” value is recorded as “statistically significantly suppressed”.
As to `O=C(Nc1ccc(-c2ccccc2OC(F)(F)F)c(Cl)c1)[C@H]1CCCCN1C(=O)Cn1cnnn1` [Example 57, (R)-1-(2-(1H-tetrazol-1-yl)acetyl)-N-(2-chloro-2′-(trifluoromethoxy)-[1,1′-biphenyl]-4-yl)piperidine-2-carboxamide], in assay [1] (1 mg/kg orally once daily from 13 days after MOG35-55 inoculation, score on the 30th day, Wilcoxon test P<0.05 (FIG. 3)), the “increase in the neurological symptom score” value is reported as “statistically significantly suppressed”. In addition, the “change in the ear thickness” value in assay [2] is on record as “statistically significantly suppressed”.
